Results on three compounds are retold here after publication PMC4368485 (Neuron, 2015).

Data set [1] deals with rat GluN1-1a/GluN2B receptors (Rattus norvegicus, UniProt P35439+Q00960). Particulars: Table S6 ref Mott et al., 1998; cited from earlier work.
The conditions of data set [2]: estimated from the literature ref Yang et al., 2003, Nicholson et al., 2007; cited from earlier work.
Data set [3] has as its system horizontal locomotor activity. The data set can be described thus: Locomotor activity. It is filed as in vivo, rat. Particulars: at high doses IP; rats; cumulative 2 hr.
A further data set has as its system latency to fall. The data set can be described thus: Rotorod test. It is filed as in vivo, mouse. The conditions noted are these: mice, vehicle 140±13 sec. (In general: The rotarod test checks motor coordination on a turning rod.)

Chain of rat GluN1-1a/GluN2B receptors (Q00960 27-1482, other chains not shown): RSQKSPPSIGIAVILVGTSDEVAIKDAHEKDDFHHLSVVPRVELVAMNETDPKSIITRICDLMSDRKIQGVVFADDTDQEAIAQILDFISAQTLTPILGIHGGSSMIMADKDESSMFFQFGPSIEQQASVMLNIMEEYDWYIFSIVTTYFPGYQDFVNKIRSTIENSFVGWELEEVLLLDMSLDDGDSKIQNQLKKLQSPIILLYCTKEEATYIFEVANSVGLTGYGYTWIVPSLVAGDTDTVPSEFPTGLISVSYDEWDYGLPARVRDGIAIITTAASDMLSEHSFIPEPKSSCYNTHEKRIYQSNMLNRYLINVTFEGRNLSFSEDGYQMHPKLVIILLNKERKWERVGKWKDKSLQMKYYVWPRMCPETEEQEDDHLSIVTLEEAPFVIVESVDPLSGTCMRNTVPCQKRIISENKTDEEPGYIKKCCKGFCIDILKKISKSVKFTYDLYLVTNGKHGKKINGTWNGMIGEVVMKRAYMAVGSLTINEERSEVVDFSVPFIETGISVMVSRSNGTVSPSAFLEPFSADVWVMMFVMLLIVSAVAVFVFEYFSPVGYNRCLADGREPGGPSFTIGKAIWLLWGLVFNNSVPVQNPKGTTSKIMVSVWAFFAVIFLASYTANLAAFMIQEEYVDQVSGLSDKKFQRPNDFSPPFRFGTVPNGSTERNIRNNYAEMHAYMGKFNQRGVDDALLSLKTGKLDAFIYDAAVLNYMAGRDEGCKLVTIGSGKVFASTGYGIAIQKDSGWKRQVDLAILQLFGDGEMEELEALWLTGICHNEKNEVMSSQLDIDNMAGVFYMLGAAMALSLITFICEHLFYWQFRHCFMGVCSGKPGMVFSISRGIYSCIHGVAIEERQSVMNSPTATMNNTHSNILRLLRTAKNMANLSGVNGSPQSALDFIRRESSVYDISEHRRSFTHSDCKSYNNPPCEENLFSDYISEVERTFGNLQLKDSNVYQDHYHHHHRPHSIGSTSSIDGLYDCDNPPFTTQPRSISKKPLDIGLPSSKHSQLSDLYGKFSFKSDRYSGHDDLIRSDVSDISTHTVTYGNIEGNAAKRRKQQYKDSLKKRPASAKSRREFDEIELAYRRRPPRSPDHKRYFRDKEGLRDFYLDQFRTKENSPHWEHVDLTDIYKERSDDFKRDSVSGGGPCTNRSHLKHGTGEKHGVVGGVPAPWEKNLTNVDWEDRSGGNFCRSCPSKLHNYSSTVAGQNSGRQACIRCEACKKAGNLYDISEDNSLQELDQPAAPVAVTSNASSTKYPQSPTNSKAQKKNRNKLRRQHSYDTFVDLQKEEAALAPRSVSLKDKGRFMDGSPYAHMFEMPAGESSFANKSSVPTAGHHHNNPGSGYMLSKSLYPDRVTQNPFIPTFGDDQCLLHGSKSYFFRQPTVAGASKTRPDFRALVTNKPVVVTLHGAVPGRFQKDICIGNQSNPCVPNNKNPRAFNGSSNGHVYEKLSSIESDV

For the compound `C[C@@H]([C@@H](O)c1ccc(O)cc1)N1CCC(O)(c2ccccc2)CC1` [CP-101,606], the “pH sensitivity of inhibition” value in data set [1] is listed as “lack substantial pH sensitivity”. Also, in data set [2], the “therapeutic ratio (TR) for neuroprotection” value was ~ 4.

For `CC(C(O)c1ccc(O)cc1)N1CCC(Cc2ccccc2)CC1` (centres unmarked) [ifenprodil], in data set [3], the “effect on locomotor activity” value was “reduced”. For the same compound, in the data set on latency to fall (30 mg/kg IP), the “rotorod latency to fall” value was 35 ± 6 s.

As to (+)MK-801, the “rotorod latency to fall” value in the data set on latency to fall (0.6 mg/kg IP) turned out to be 3 ± 2 s.
